Data: PMC10485887, “PET Evaluation of the Novel F-18 Labeled Reversible Radioligand [^18F]GEH200449 for Detection of Monoamine Oxidase-B in the Non-Human Primate Brain” (ACS Chemical Neuroscience, 2023)
Where two headings read alike, the source gives them in different places.

Tested on: MAO-B
Type: in vivo, Macaca fascicularis
Settings: baseline
Description: At start of PET data acquisition, a sterile physiological phosphate buffer solution (pH = 7.4) of [^18F]GEH200449 (injected radioactivity, 107–167 MBq) was injected as a bolus into a sural vein. Emission data were acquired in list mode for 123 min. Arterial blood was sampled as previously described[28] using an automated blood sampling system (ABSS) during the first 3 min of each PET measurement. Subsequently, arterial blood samples (0.7–2.5 mL) were manually drawn at 7, 15, 30, 60, 90, and 120 min after injection of [^18F]GEH200449. After centrifugation, 0.15–1.0 mL of plasma was pipetted and plasma radioactivity was measured in a well counter. In addition, samples were taken directly from the ABSS at 0.5, 1, 1.5, 2, 2.5, and 3 min for cross-calibration with the well counter and for the determination of the plasma-to-blood ratio.
Dynamic images were reconstructed as previously described.[30],[31] Regions of interest (ROIs) for the whole brain and selected regions (caudate nucleus, putamen, thalamus, occipital cortex, prefrontal cortex, and cerebellum) were manually delineated on T1-weighted magnetic resonance images (MRIs) acquired as previously described.[21],[27] PET images were coregistered to the MRIs, and time-activity curves were generated by pooling ROIs for each paired anatomical region and applying the pooled ROIs to the coregistered PET images. Delineation of ROIs and image coregistrations were performed using the software PMOD v. 3.6 (PMOD Technologies, Zurich, Switzerland).
Time curves for regional [^18F]GEH200449 binding at baseline were analyzed by kinetic modeling using 1-TC and 2-TC models,[32] and VT as outcome measures. Akaike information criterion[33] and F statistics were applied to select the preferred model. Regional estimates of VT for [^18F]GEH200449 were also obtained using the Logan linear graphical method[34] with t* fixed at 40 min. The analyses were performed using the kinetic modeling tool in PMOD v. 4.3. Occupancy at [^18F]GEH200449 binding sites was estimated based on regional VT values obtained by the Logan method at baseline and after drug administration according to a graphical procedure described in the literature.[22]

O=c1ccoc2ccc(OCc3ccc([18F])nc3)cc12 [[^18F]GEH200449] was tested, and the “2-TC parameter estimate K1” value (NHP #1, CAU) was 0.70 mL min-1 cm-3, the “2-TC parameter estimate VT” value (NHP #1, CAU) was 14.6 mL cm-3 and the “2-TC parameter estimate k2” value (NHP #1, CAU) was 0.09 min⁻¹. For the same compound, the “2-TC parameter estimate k3” value (NHP #1, CAU) was 0.034 min⁻¹, the “2-TC parameter estimate k4” value (NHP #1, CAU) was 0.037 min⁻¹ and the “2-TC parameter estimate K1” value (NHP #1, CER) was 0.47 mL min-1 cm-3. For the same compound, the “2-TC parameter estimate VT” value (NHP #1, CER) was 11.1 mL cm-3, the “2-TC parameter estimate k2” value (NHP #1, CER) was 0.07 min⁻¹ and the “2-TC parameter estimate k3” value (NHP #1, CER) was 0.021 min⁻¹. For the same compound, the “2-TC parameter estimate k4” value (NHP #1, CER) was 0.038 min⁻¹, the “2-TC parameter estimate K1” value (NHP #1, OC) was 0.49 mL min-1 cm-3 and the “2-TC parameter estimate VT” value (NHP #1, OC) was 10.8 mL cm-3. For the same compound, the “2-TC parameter estimate k2” value (NHP #1, OC) was 0.07 min⁻¹, the “2-TC parameter estimate k3” value (NHP #1, OC) was 0.016 min⁻¹ and the “2-TC parameter estimate k4” value (NHP #1, OC) was 0.024 min⁻¹. For the same compound, the “2-TC parameter estimate K1” value (NHP #1, PFC) was 0.57 mL min-1 cm-3, the “2-TC parameter estimate VT” value (NHP #1, PFC) was 11.0 mL cm-3 and the “2-TC parameter estimate k2” value (NHP #1, PFC) was 0.09 min⁻¹. For the same compound, the “2-TC parameter estimate k3” value (NHP #1, PFC) was 0.028 min⁻¹, the “2-TC parameter estimate k4” value (NHP #1, PFC) was 0.037 min⁻¹ and the “2-TC parameter estimate K1” value (NHP #1, PUT) was 0.71 mL min-1 cm-3. The “2-TC parameter estimate VT” value (NHP #1, PUT) was 14.1 mL cm-3, the “2-TC parameter estimate k2” value (NHP #1, PUT) was 0.09 min⁻¹ and the “2-TC parameter estimate k3” value (NHP #1, PUT) was 0.025 min⁻¹. The “2-TC parameter estimate k4” value (NHP #1, PUT) was 0.029 min⁻¹, the “2-TC parameter estimate K1” value (NHP #1, THA) was 0.59 mL min-1 cm-3 and the “2-TC parameter estimate VT” value (NHP #1, THA) was 15.0 mL cm-3. For the same compound, the “2-TC parameter estimate k2” value (NHP #1, THA) was 0.06 min⁻¹, the “2-TC parameter estimate k3” value (NHP #1, THA) was 0.008 min⁻¹ and the “2-TC parameter estimate k4” value (NHP #1, THA) was 0.016 min⁻¹. For the same compound, the “2-TC parameter estimate K1” value (NHP #1, WB) was 0.51 mL min-1 cm-3, the “2-TC parameter estimate VT” value (NHP #1, WB) was 10.9 mL cm-3 and the “2-TC parameter estimate k2” value (NHP #1, WB) was 0.09 min⁻¹. For the same compound, the “2-TC parameter estimate k3” value (NHP #1, WB) was 0.025 min⁻¹, the “2-TC parameter estimate k4” value (NHP #1, WB) was 0.031 min⁻¹ and the “2-TC parameter estimate K1” value (NHP #3, CAU) was 0.65 mL min-1 cm-3. The “2-TC parameter estimate VT” value (NHP #3, CAU) was 19.2 mL cm-3, the “2-TC parameter estimate k2” value (NHP #3, CAU) was 0.04 min⁻¹ and the “2-TC parameter estimate k3” value (NHP #3, CAU) was 0.006 min⁻¹. The “2-TC parameter estimate k4” value (NHP #3, CAU) was 0.029 min⁻¹, the “2-TC parameter estimate K1” value (NHP #3, CER) was 0.44 mL min-1 cm-3 and the “2-TC parameter estimate VT” value (NHP #3, CER) was 13.9 mL cm-3. For the same compound, the “2-TC parameter estimate k2” value (NHP #3, CER) was 0.04 min⁻¹, the “2-TC parameter estimate k3” value (NHP #3, CER) was 0.005 min⁻¹ and the “2-TC parameter estimate k4” value (NHP #3, CER) was 0.016 min⁻¹. For the same compound, the “2-TC parameter estimate K1” value (NHP #3, OC) was 0.38 mL min-1 cm-3, the “2-TC parameter estimate VT” value (NHP #3, OC) was 11.2 mL cm-3 and the “2-TC parameter estimate k2” value (NHP #3, OC) was 0.04 min⁻¹. The “2-TC parameter estimate k3” value (NHP #3, OC) was 0.003 min⁻¹, the “2-TC parameter estimate k4” value (NHP #3, OC) was 0.012 min⁻¹ and the “2-TC parameter estimate K1” value (NHP #3, PFC) was 0.49 mL min-1 cm-3. For the same compound, the “2-TC parameter estimate VT” value (NHP #3, PFC) was 13.5 mL cm-3, the “2-TC parameter estimate k2” value (NHP #3, PFC) was 0.05 min⁻¹ and the “2-TC parameter estimate k3” value (NHP #3, PFC) was 0.006 min⁻¹. The “2-TC parameter estimate k4” value (NHP #3, PFC) was 0.017 min⁻¹, the “2-TC parameter estimate K1” value (NHP #3, PUT) was 0.70 mL min-1 cm-3 and the “2-TC parameter estimate VT” value (NHP #3, PUT) was 16.7 mL cm-3. For the same compound, the “2-TC parameter estimate k2” value (NHP #3, PUT) was 0.05 min⁻¹, the “2-TC parameter estimate k3” value (NHP #3, PUT) was 0.007 min⁻¹ and the “2-TC parameter estimate k4” value (NHP #3, PUT) was 0.029 min⁻¹. The “2-TC parameter estimate K1” value (NHP #3, THA) was 0.58 mL min-1 cm-3, the “2-TC parameter estimate VT” value (NHP #3, THA) was 18.5 mL cm-3 and the “2-TC parameter estimate k2” value (NHP #3, THA) was 0.04 min⁻¹. The “2-TC parameter estimate k3” value (NHP #3, THA) was 0.007 min⁻¹, the “2-TC parameter estimate k4” value (NHP #3, THA) was 0.023 min⁻¹ and the “2-TC parameter estimate K1” value (NHP #3, WB) was 0.48 mL min-1 cm-3. For the same compound, the “2-TC parameter estimate VT” value (NHP #3, WB) was 12.6 mL cm-3, the “2-TC parameter estimate k2” value (NHP #3, WB) was 0.05 min⁻¹ and the “2-TC parameter estimate k3” value (NHP #3, WB) was 0.010 min⁻¹. For the same compound, the “2-TC parameter estimate k4” value (NHP #3, WB) was 0.029 min⁻¹, the “2-TC parameter estimate K1” value (NHP #4, CAU) was 0.50 mL min-1 cm-3 and the “2-TC parameter estimate VT” value (NHP #4, CAU) was 19.9 mL cm-3. For the same compound, the “2-TC parameter estimate k2” value (NHP #4, CAU) was 0.05 min⁻¹, the “2-TC parameter estimate k3” value (NHP #4, CAU) was 1.087 min⁻¹ and the “2-TC parameter estimate k4” value (NHP #4, CAU) was 1.229 min⁻¹. For the same compound, the “2-TC parameter estimate K1” value (NHP #4, CER) was 0.32 mL min-1 cm-3.
